This assay has as its system CFA-induced pain model. The experiment in a line: Antiallodynic activity on Complete Freund's Adjuvant (CFA)-induced inflammatory pain model (von Frey). The assay is classed as in vivo, Sprague-Dawley rats. As to conditions: ip; rat, intraperitoneal, von Frey, 0.5 h.

Molecules are shown by their SMILES.

This is an account of results in patent publication US9834535B2, “Sulfamate derivative compounds for use in treating or alleviating pain” (Bio-Pharm Solutions Co., Ltd., priority 2013, dated 2017).

Usually ED50 stands for the midpoint of the dose-response relation.

On to `CC1(C)O[C@@H](COS(N)(=O)=O)[C@H](c2ccccc2Cl)O1` [Example 2, ((4S,5S)-5-(2-chlorophenyl)-2,2-dimethyl-1,3-dioxolan-4-yl)methyl sulfamate], for which the 50% effective dose (ED50) is 5.9 mg/kg.
